Measured values reported in patent US8691749B2, “Peptide and use thereof” (Ensoltek Co., Ltd., priority 2009, dated 2014).

Columns and labels:
TGF-beta1 signaling = TGF-beta1 signaling inhibition: phosphorylated Smad2 Western blot in HepG2 cells; format: cell-based
Method: Inhibition of TGF-beta1 signaling by the peptide of Example 1 was confirmed in accordance with the following experimental method.
Treatment of HepG2 cells with TGF-beta1 is known to result in apoptosis, during which Smad2 is first phosphorylated (Park T J. et al., Mol. Carcinog. 47:784-796, 2008; and Gressner A M. et al., J Hepatol. 26:1079-1092, 1997). Using these properties, the experiment was carried out as follows. 1×10^6 of HepG2 cells (ATCC; American Type Culture Collection) were seeded in a 60 mm dish, stabilized overnight, and then depleted of nutrients by serum-free media (SFM) for 24 hours. Prior to treatment of the cells with the peptide of Example 1, 5 ng/mL of TGF-beta1 (PromoKine, Germany) and the above peptide (1, 5, and 25 μM) were subjected to pre-incubation at 37° C. for 1 hour. Further, DMSO (2 μl/mL) was also pre-incubated with TGF-beta1 (5 ng/mL) at 37° C. for 1 hour. Then, the cells were treated with the pre-incubated solutions for 30 minutes, followed by extraction of proteins. In addition, the cells were previously treated only with […] of SB431542 (TOCRIS, USA), an inhibitor of the TGF-beta receptor, followed by incubation for 1 hour, and then treated with TGF-beta1 (5 ng/mL) for 30 minutes. Then, the cells were homogenized on ice in Radioimmunoprecipitation (RIPA) Lysis Buffer (Millipore) {50 mM Tris-HCl (pH 7.4), 150 mM NaCl, 0.25% deoxycholic acid, 1% NP-40, 1 mM ethylenediaminetetraacetic acid (EDTA), 1 mM phenylmethylsulfonyl fluoride (PMSF), 40 mM NaF, 1 mM Na3VO4, 1 mM dithiothreitol (DTT)}. […]
FIG. 3 illustrates the Western blot results (Lane 1: non-treated HepG2 cells, Lane 2: TGF-beta1-treated cells, Lane 3: TGF-beta1/SB431542-treated cells, Lanes 4, 5 and 6: cells treated with 1, 5, and 25 μM of peptide/TGF-beta1, respectively, and Lane 7: TGF-beta1/DMSO-treated cells). […] The bottom of FIG. 3 illustrates the Coomassie Blue staining results of the membrane used in Western blot, showing that the quantity of the protein is the same in all the lanes.

degenerated disc tissue = assay: Disc regeneration effects by disc tissue staining (H&E) in disc degeneration model; format: in vivo, rabbits (New Zealand white rabbits); conditions: 0.5 mM/animal, local intradiscal injection twice
Method: 30 rabbits (New Zealand white rabbits; Orient Bio Inc.), weighing 3 to 3.5 kg, were prepared irrespective of sex.
The rabbits were anesthetized by intramuscular injection of 5 mg/kg of xylazine (Rompun, Bayer) and 35 mg/kg of ketamine hydrochloride (Ketalar, Pfizer). Prior to the procedure, lateral plain X-ray using a fluoroscopic apparatus (Model VPX-200; Toshiba Co.) was obtained to establish the pre-injection baseline height of intervertebral disc. The baseline control refers to a standard for measurement of a disc space. After the rabbits were positioned on the laboratory table, L23, L34, L45, and L56 disc levels were confirmed by the machine, and annulus fibrosus was stabbed into the posterolateral side of the disc at L23, L45, and L56 levels, using an 18G needle. After recovery from the anesthesia, the animals were housed in a cage under the following breeding conditions: temperature 20-25° C., humidity 10%-50%, and Light/Dark (L/D) cycle: (light from 08:00 a.m. to 20:00 p.m.). All animals were fed once a day. X-ray photographs were taken 2 and 4 weeks after the initial annular puncture. The X-ray was taken after anesthesia. Based on the results of X-ray, an intervertebral disc height (IVD height) was measured. From the measurement results, disc degeneration degree was quantified by a modification of the method disclosed in Lu et al., Spine. 22:1828-34, 1997.
Thereafter, experiments were carried out for two separate groups, DMSO-administered control group and Example 1 peptide-administered experimental group, and the rabbits were euthanized by injection of ketamine (25 mg/kg) and sodium pentobarbital (1.2 g/kg, Nembutal, Ovation) according to the planned schedule, followed by extraction of the disc for histological and biochemical analysis, respectively.
Disc-degenerated rabbits from Section 2-1 were divided into two groups. Each group was given dimethyl sulfoxide (DMSO) and the peptide of Example 1 (0.5 mM/animal) by local intradiscal injection twice. The administration point for each group was 4 weeks after the induction of disc degeneration and 2 weeks thereafter. After the second administration, the animals were raised for 2, 4, and 8 weeks, respectively. At Weeks 4, 6, and 10 after the first administration of each of the Example 1 peptide and DMSO, the corresponding respective disc tissues were extracted and fixed in formalin. The fixed disc tissues were embedded in paraffin, and serial sections having a thickness of […] along the sagittal plane were prepared. Of these sections, two mid-sagittal sections were stained with hematoxylin and eosin (H&E). For the comparison with the normal disc tissue, the disc was extracted, treated and stained from the rabbits with no induction of disc degeneration according to the same method described above. […]

aggrecan gene = assay: Aggrecan gene expression in disc tissues by real-time PCR in disc degeneration model; format: in vivo, rabbits (New Zealand white rabbits); conditions: Week 4 after first administration; 0.5 mM/animal intradiscal at Weeks 0 and 2
Method: Real-time PCR was carried out to examine a gene expression level of aggrecan, which is a representative extracellular matrix component in disc tissues.
In the same manner as in Example 2-1, animals were prepared and divided into two groups, to each of which DMSO and the peptide of Example 1 (0.5 mM/animal) were administered by local intradiscal injection. The administration point for each group was 4 weeks after the induction of disc degeneration and 2 weeks thereafter. After the second administration, the animals were raised for 2, 4, and 8 weeks, respectively. […]
The quantity of mRNA of GAPDH and aggrecan was examined by a Prism 7900HT (ABI) using PowerSYBR Green PCR Master Mix (Applied Biosystems Inc.). […] GAPDH was selected as a reference gene, and a CT value difference (ΔCT) between the reference gene and the aggrecan gene was calculated. In addition, a CT value difference (ΔΔCT) between the normal disc and the Example 1 peptide-administered disc (or DMSO-administered disc) was calculated. Then, 2^(−ΔΔCT) was calculated and expressed in terms of percentage relative to the normal disc value.

| Molecule | phosphorylation of Smad2 (TGF-beta1 signaling; pre-treated with 1004 of SB431542 for 1 hour, then TGF-beta1 5 ng/mL for 30 minutes) | distinction between nucleus pulposus and annulus fibrosus (degenerated disc tissue; Week 10) | extracellular matrix components in disc tissue (degenerated disc tissue; Week 10) | size of disc as compared to the DMSO-administered disc tissue (degenerated disc tissue; Week 10) | staining of cell nuclei in the nucleus pulposus region (degenerated disc tissue; Week 10, x400) | aggrecan gene expression as compared to the DMSO-administered disc tissue (aggrecan gene) | phosphorylation degree of Smad2 (TGF-beta1 signaling; peptide 1, 5 and 25 μM pre-incubated with TGF-beta1 5 ng/mL for 1 hour, cells treated 30 minutes) | extent of TGF-beta1 signaling inhibition (TGF-beta1 signaling; peptide 1, 5 and 25 μM, compared with SB431542) |
| --- | --- | --- | --- | --- | --- | --- | --- | --- |
| NC(=O)c1ccc(-c2nc(-c3ccc4c(c3)OCO4)c(-c3ccccn3)[nH]2)cc1 [SB431542, reference compound] | complete inhibition of phosphorylation | – | – | – | – | – | – | – |
| LQVVYLH [Example 1] | – | discernible between the nucleus pulposus and the annulus fibrosus | abundance of extracellular matrix components | increased size of disc | vivid staining of the cell nuclei | increase in the aggrecan gene expression | decreased in a dose-dependent manner | does not completely inhibit TGF-beta1 signaling |
